Consider 18 compounds from ChEMBL document CHEMBL3421556, “Bis(aminomethyl)phosphinic Acid, a Highly Promising Scaffold for the Development of Bacterial Urease Inhibitors” (ACS Med Chem Lett, 2015).

Test [1] is described as follows: Inhibition of urease from Sporosarcina pasteurii CCM 2056 using urea as substrate by Berthelot colorimetric assay.
Test [2] in a line: Inhibition of urease from Proteus mirabilis CCM 1944 using urea as substrate by Berthelot colorimetric assay.

Regarding `NCP(=O)(O)CN`, the Ki (commonly the equilibrium dissociation constant of an inhibitor or competing ligand from its target) in test [1] (read-out: Ki) worked out at 80 µM; in test [2] (read-out: Ki), 82 µM.

Take `CNCP(=O)(O)CN`: the results for the Ki in test [1] (read-out: Ki) and in test [2] (read-out: Ki) were 1.59 µM and 34 µM, respectively.

For `CCCNCP(=O)(O)CN`, the Ki was determined as 11.2 µM in test [1] (read-out: Ki) and 16 µM in test [2] (read-out: Ki).

`CCCCNCP(=O)(O)CN`: the Ki in test [1] (read-out: Ki) was determined as 9.6 µM; in test [2] (read-out: Ki) it was 25.9 µM.

Consider `CC(C)CNCP(=O)(O)CN`, for which the Ki in test [1] (read-out: Ki) stood at 270 µM; in test [2] (read-out: Ki), 416 µM.

For the compound `CCCCCNCP(=O)(O)CN`, the figures for the Ki in test [1] (read-out: Ki) and in test [2] (read-out: Ki) were 13.3 µM and 19 µM, respectively.

On to `CCCCCCNCP(=O)(O)CN`, for which the values for the Ki in test [1] (read-out: Ki) and in test [2] (read-out: Ki) were 0.108 µM and 0.202 µM, respectively.

Regarding `CCCCCCCNCP(=O)(O)CN`, the inhibitory constant (Ki) in test [1] (read-out: Ki) is 543 µM; in test [2] (read-out: Ki) it was 778 µM.

In the case of `CCCCCCCCNCP(=O)(O)CN`, the Ki entry in test [1] and in test [2] was “Not Active” throughout.

On to `NCP(=O)(O)CNC1CCCCC1`, for which the Ki entry in test [1] and in test [2] was “Not Active” each time.

Consider `CN(C)CP(=O)(O)CN`, for which the Ki was 4.66 µM in test [1] (read-out: Ki) and 24.4 µM in test [2] (read-out: Ki).

`CCN(CC)CP(=O)(O)CN`: the Ki entry in test [1] and in test [2] was “Not Active” in each case.

For `NCP(=O)(O)CN1CCCCC1`, the Ki result in test [1] and in test [2] was “Not Active” in each case.

For `CN(Cc1ccccc1)CP(=O)(O)CN`, the values for the Ki in test [1] (read-out: Ki) and in test [2] (read-out: Ki) were 14.2 µM and 58.3 µM, respectively.

Regarding `CNCP(=O)(O)CNC`, the figures for the Ki in test [1] (read-out: Ki) and in test [2] (read-out: Ki) were 4.3 µM and 17.2 µM, respectively.

Take `O=P(O)(CNCc1ccccc1)CNCc1ccccc1`: the Ki stood at 30.1 µM in test [1] (read-out: Ki) and 24.5 µM in test [2] (read-out: Ki).

Take `CN(C)CP(=O)(O)CN(C)C`: the Ki result was “Not Active” in test [1] and 243 µM in test [2] (read-out: Ki).

Regarding `CC(=O)NO` [ACETOHYDROXAMIC ACID], the Ki in test [1] (read-out: Ki) was 3.3 µM; in test [2] (read-out: Ki) it was 5.7 µM.
